Patent US20190330224A1, “ACC INHIBITORS AND USES THEREOF” (Gilead Apollo, LLC, priority 2015, published 2019)
≈ marks a conversion by molar mass, not a printed value.

How the values were obtained:
[1] = compound concentration 10 ppm, foliar spray, evaluated 7 days after inoculation
[2] = biological target: Human ACC2 (Homo sapiens, UniProt O00763); assay: In vitro ACC2 inhibition assay (ADP-Glo), human ACC2; type: biochemical; conditions: 5 nM ACC2, 20 μM ATP, 20 μM acetyl-CoA
[3] = system: Botrtyis cinerea (Bc); assay: Growth inhibition assay of fungal pathogens, Bc; type: cell-based; conditions: 48 hours; read-out: Concentration at 90% Inhibition, Bc
How it was run: (§1)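 Spores in 17% V8 liquid medium were exposed to compound at final 50, 10 and 2 ppm or 2, 0.4 and 0.08 ppm with 2% DMSO. After 48 h, OD600 (blank-subtracted) and visual ratings were compared with the 2% DMSO control to give percent growth inhibition.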

[4] = biological target: Fungal ACC2 (UniProt Q00955); conditions: read-out: Fungal ACC2 (IC50, in vitro ACC2 inhibition)
[5] = system: C. albicans ATCC 90028; assay: Anti-Fungal Activity Assay (broth microtiter MIC), C. albicans; type: cell-based, Candida albicans; conditions: Candida albicans, ATCC90028, 48 h, 3 replicates; MIC recorded at 48 h; read-out: MIC C. albicans ATCC 90028
How it was run: (§2)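 MIC by visual comparison with growth control, read at 48 h (soraphen also at 24 h). Inoculum: colonies from overnight Sabouraud dextrose agar plates at 35° C, suspended in RPMI 1640+MOPS, density from standard curves. Microtiter broth dilution per CLSI M27-A3; compounds from 1 mg/mL DMSO stocks.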

[6] = system: Fusarium moniliforme (Fm); assay: Growth inhibition assay of fungal pathogens, Fm; type: cell-based; conditions: Fusarium verticillioides; 48 hours; read-out: Concentration at 90% Inhibition, Fm
How it was run: as §1

[7] = system: C. parapsilosis ATCC 22019; assay: Anti-Fungal Activity Assay (broth microtiter MIC), C. parapsilosis; type: cell-based, Candida parapsilosis; conditions: Lodderomyces parapsilosis, ATCC22019, 48 h, 3 replicates; MIC recorded at 48 h; read-out: MIC C. parapsilosis ATCC 22019
How it was run: as §2

[8] = system: Septoria tritici (St); assay: Growth inhibition assay of fungal pathogens, St; type: cell-based; conditions: Zymoseptoria tritici; 48 hours; read-out: Concentration at 90% Inhibition, St
How it was run: as §1

[9] = system: Fusarium virguliforme (Fv); assay: Growth inhibition assay of fungal pathogens, Fv; type: cell-based; conditions: 48 hours, read-out: Concentration at 90% Inhibition, Fv
How it was run: as §1

[10] = system: Diplodia maydis (Dm); assay: Growth inhibition assay of fungal pathogens, Dm; type: cell-based; conditions: Stenocarpella maydis; 48 hours; read-out: Concentration at 90% Inhibition, Dm
How it was run: as §1

[11] = system: Rhizoctonia solani (Rs); assay: Growth inhibition assay of fungal pathogens, Rs; type: cell-based; conditions: 48 hours, read-out: Concentration at 90% Inhibition, Rs
[12] = system: Blumeria graminis f sp. hordei; assay: Foliar protection test, barley powdery mildew control; type: in vivo, Blumeria graminis f sp. hordei on Hordeum vulgare cv. Perry; conditions: 168 h, compound concentration 50 ppm, foliar spray, evaluated 7 days after inoculation, read-out: Barley Powdery Mildew Control at 50 ppm
How it was run: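 Barley cv. Perry at first true leaf (6 days) sprayed to wetness on both leaf sides with compound in 5% acetone/0.005% Tween 80, typically at 200, 100, 50, 10 or 2 ppm. Inoculated 24 h later by shaking spores from colonized plants; kept at 20-22 °C, 70% RH. Mildew colonization scored 7 days later as percent control.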

[13] = system: Phytophthora capsici (Pc); assay: Growth inhibition assay of fungal pathogens, Pc; type: cell-based; conditions: 48 hours, read-out: Concentration at 90% Inhibition, Pc
How it was run: as §1

[14] = system: Collectotrichum graminicola (Cg); assay: Growth inhibition assay of fungal pathogens, Cg; type: cell-based; conditions: 48 hours; read-out: Concentration at 90% Inhibition, Cg
How it was run: as §1

[15] = system: C. krusei ATCC 6258; assay: Anti-Fungal Activity Assay (broth microtiter MIC), C. krusei; type: cell-based, Candida krusei; conditions: Pichia kudriavzevii, ATCC6258, 48 h, 3 replicates; MIC recorded at 48 h; read-out: MIC C. krusei ATCC 6258
How it was run: as §2

Sequence of Human ACC2 (O00763 whole entry): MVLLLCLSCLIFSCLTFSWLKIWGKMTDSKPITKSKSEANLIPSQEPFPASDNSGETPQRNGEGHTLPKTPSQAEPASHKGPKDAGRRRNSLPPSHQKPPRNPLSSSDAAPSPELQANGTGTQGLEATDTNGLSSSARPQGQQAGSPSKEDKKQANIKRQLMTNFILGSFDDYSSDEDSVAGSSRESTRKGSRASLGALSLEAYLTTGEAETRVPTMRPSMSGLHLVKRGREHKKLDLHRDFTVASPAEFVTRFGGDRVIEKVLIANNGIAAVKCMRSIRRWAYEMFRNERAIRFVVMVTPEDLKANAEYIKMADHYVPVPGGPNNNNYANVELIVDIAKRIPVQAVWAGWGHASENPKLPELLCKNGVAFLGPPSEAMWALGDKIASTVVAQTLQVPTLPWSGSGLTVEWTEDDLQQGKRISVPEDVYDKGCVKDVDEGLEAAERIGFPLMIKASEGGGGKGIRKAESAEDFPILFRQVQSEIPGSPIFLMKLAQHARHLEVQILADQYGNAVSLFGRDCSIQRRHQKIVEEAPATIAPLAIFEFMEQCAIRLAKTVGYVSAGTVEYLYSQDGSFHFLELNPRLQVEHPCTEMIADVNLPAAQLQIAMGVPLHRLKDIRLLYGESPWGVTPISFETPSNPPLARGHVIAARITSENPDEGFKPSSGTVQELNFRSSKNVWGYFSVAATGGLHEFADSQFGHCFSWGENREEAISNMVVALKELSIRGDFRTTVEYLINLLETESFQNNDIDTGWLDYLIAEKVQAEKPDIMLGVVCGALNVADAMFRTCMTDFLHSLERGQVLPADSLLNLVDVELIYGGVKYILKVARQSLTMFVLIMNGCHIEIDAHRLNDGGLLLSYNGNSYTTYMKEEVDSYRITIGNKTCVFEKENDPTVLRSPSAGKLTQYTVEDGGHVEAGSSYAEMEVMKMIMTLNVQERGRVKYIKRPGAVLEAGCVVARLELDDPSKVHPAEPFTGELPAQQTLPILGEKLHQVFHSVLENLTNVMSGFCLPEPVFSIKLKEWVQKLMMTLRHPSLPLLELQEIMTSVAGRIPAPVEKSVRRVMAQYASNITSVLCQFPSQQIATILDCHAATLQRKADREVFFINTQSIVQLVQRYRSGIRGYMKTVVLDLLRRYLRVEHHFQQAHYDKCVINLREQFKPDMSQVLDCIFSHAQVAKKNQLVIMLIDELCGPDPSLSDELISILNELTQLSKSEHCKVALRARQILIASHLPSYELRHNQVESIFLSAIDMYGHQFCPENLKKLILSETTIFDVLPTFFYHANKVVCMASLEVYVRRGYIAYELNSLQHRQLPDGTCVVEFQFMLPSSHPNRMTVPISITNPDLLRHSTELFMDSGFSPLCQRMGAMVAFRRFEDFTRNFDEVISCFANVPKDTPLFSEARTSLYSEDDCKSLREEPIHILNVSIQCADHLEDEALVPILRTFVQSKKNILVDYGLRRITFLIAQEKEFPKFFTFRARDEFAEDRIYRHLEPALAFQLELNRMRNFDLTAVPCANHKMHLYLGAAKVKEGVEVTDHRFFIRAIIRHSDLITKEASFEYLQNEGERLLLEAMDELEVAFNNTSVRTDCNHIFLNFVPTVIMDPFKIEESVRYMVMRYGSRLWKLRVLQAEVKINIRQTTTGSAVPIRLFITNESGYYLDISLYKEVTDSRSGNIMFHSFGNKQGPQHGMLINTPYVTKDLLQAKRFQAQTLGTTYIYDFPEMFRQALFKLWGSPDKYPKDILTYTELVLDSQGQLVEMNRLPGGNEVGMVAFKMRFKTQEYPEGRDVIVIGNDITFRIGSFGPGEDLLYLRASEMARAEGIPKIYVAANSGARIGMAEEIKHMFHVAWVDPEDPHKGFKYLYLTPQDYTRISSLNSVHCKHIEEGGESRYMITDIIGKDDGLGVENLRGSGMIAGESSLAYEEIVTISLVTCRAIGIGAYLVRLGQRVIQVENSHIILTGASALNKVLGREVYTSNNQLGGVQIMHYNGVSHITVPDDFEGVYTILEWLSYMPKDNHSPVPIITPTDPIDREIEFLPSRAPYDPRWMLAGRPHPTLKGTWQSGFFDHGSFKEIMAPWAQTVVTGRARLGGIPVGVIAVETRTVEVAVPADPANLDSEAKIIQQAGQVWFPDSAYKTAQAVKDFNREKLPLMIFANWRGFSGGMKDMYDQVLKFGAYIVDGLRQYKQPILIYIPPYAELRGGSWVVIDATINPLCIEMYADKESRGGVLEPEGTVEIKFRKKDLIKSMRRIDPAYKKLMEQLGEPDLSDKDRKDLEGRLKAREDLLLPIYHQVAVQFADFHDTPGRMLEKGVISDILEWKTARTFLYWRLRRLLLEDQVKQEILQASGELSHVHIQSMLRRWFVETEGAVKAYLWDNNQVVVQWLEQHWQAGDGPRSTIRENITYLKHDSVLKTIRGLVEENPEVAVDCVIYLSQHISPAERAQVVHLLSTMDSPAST
Sequence of Fungal ACC2 (Q00955 whole entry): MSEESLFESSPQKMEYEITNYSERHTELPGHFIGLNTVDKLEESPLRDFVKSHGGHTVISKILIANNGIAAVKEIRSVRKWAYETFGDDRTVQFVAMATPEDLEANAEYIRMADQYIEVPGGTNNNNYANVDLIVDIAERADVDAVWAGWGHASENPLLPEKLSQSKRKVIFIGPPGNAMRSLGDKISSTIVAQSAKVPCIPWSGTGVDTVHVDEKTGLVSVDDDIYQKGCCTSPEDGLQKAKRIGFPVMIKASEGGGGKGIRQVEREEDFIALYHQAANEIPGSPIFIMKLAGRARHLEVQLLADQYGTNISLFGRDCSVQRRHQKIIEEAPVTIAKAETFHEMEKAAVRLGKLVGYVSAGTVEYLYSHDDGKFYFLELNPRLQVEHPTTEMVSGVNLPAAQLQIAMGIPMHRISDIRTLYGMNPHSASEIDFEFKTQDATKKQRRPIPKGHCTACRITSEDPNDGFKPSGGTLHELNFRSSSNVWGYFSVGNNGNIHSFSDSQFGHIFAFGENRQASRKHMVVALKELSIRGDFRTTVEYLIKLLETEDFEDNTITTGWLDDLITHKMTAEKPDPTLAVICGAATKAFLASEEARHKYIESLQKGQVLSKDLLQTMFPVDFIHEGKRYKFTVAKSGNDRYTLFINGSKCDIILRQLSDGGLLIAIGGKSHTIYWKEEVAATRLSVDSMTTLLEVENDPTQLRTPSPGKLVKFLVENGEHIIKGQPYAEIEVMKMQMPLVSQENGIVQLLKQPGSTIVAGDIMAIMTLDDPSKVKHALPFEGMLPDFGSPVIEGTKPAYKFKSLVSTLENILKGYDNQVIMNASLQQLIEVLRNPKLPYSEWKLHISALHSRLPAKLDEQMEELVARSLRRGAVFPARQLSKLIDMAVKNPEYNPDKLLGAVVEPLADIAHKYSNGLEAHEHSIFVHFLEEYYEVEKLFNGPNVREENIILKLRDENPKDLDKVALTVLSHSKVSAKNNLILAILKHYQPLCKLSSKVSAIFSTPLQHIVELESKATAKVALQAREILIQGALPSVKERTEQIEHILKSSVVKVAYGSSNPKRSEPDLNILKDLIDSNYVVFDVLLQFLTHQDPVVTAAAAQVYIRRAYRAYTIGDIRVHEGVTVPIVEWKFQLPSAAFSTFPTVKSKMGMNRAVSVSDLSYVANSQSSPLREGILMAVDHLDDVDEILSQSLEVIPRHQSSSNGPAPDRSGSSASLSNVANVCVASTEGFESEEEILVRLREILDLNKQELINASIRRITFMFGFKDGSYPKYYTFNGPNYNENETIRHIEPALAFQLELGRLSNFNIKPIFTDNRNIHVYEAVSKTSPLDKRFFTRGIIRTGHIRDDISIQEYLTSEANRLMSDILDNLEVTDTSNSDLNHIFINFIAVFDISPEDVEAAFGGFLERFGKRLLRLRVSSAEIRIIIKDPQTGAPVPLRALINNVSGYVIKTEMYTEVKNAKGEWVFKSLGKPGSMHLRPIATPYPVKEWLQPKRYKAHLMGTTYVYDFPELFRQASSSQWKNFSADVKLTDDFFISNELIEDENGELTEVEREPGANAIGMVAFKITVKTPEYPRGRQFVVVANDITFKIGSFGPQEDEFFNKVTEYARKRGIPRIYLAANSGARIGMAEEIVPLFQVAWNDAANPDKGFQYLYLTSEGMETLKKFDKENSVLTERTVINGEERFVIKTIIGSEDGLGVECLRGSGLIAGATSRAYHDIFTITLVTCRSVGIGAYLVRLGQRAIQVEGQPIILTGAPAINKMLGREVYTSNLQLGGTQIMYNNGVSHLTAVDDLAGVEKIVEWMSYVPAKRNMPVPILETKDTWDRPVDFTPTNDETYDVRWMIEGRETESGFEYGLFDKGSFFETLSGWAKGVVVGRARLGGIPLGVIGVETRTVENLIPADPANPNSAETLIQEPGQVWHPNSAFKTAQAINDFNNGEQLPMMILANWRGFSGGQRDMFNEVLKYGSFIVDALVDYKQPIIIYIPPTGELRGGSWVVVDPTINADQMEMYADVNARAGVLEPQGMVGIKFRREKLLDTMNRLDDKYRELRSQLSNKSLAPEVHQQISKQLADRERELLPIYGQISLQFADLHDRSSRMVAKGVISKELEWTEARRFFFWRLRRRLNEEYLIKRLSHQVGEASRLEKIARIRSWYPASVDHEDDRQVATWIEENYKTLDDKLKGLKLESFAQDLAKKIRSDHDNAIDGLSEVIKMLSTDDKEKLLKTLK

Row | Structure (SMILES) | Barley Powdery Mildew Control at 10 ppm [1] | IC50 [2] | IC90 [3] | IC50 [4] | MIC [5] | IC90 [6] | MIC [7] | IC90 [8] | IC90 [9] | IC90 [10] | IC90 [11] | pest or weed control at 50 ppm [12] | IC90 [13] | IC90 [14] | MIC [15]
1 | COCCO[C@@H](Cn1c(=O)n([C@@H]2CCCNC2=O)c(=O)c2c(C)c(-n3cccn3)sc21)c1cc(F)ccc1OC [Compound I-46, 1-((R)-2-(5-fluoro-2-methoxyphenyl)-22-(2-methoxy-ethoxy)ethyl)-5-methyl-3-((R)-2-oxopiperidin-3-yl)-6-(I H-pyrazol-1-yl)thieno[2,3-d]pyrimidine-2,4(1H,3H)-dione] | D (provided a compound having <25% control of barley powdery mildew) | 100 to 1000 nM | > 50 µg/mL | 10 to 100 nM | 2.1 to 4 µg/mL (≈ 3.67 to 7 µM) | > 50 µg/mL | 2.1 to 4 µg/mL (≈ 3.67 to 7 µM) | > 50 µg/mL | > 50 µg/mL | > 50 µg/mL | > 50 µg/mL | 50 to 69% | > 50 µg/mL | > 50 µg/mL | 2.1 to 4 µg/mL (≈ 3.67 to 7 µM)
2 | COCCO[C@@H](Cn1c(=O)n([C@@H]2CCN(C)C2=O)c(=O)c2c(C)c(-n3cccn3)sc21)c1cc(F)ccc1OC [Compound I-44, 1-((R)-2-(5-fluoro-2-methoxyphenyl)-2-(2-methoxy-ethoxy)ethyl)-5-methyl-3-((R)-1-methyl-2-oxopyrrolidin-3-yl)-6-(1H-pyrazol-1-yl)thieno[2,3-d]pyrimidine-2,4(1H,3H)-dione] | D (provided a compound having <25% control of barley powdery mildew) | 10 to 100 nM | > 50 µg/mL | 2 to 10 nM | 2.1 to 4 µg/mL (≈ 3.67 to 7 µM) | 10 µg/mL (≈ 17.5 µM) | 2.1 to 4 µg/mL (≈ 3.67 to 7 µM) | > 50 µg/mL | > 50 µg/mL | > 50 µg/mL | > 50 µg/mL | 70 to 84% | > 50 µg/mL | > 50 µg/mL | 2.1 to 4 µg/mL (≈ 3.67 to 7 µM)
3 | COc1ccc(F)cc1[C@H](Cn1c(=O)n([C@@H]2CCN(C)C2=O)c(=O)c2c(C)c(-n3nccn3)sc21)OCCO [Compound I-83, 1-((R)-2-(5-fluoro-2-methoxyphenyl)-2-(2-hydroxy-ethoxy)ethyl)-5-methyl-3-((R)-1-methyl-2-oxopyrrolidin-3-yl)-6-(2H-1,2,3-triazol-2-yl)thieno[2,3-d]pyrimidine-2,4(1H,3H)-dione] | D (provided a compound having <25% control of barley powdery mildew) | 2 to 10 nM | 2 µg/mL (≈ 3.58 µM) | 0.7 to 2 nM | 2.1 to 4 µg/mL (≈ 3.76 to 7.16 µM) | 2 µg/mL (≈ 3.58 µM) | 2.1 to 4 µg/mL (≈ 3.76 to 7.16 µM) | > 50 µg/mL | 10 µg/mL (≈ 17.9 µM) | 10 µg/mL (≈ 17.9 µM) | 2 µg/mL (≈ 3.58 µM) | 70 to 84% | > 50 µg/mL | 2 µg/mL (≈ 3.58 µM) | 2.1 to 4 µg/mL (≈ 3.76 to 7.16 µM)
4 | COCCO[C@@H](Cn1c(=O)n([C@@H]2CCCN(C)C2=O)c(=O)c2c(C)c(-n3cccn3)sc21)c1cc(F)ccc1OC [Compound I-48, 1-((R)-2-(5-fluoro-2-methoxyphenyl)-2-(2-methoxy-ethoxy)ethyl)-5-methyl-3-((R)-1-methyl-2-oxopiperidin-3-yl)-6-(1H-pyrazol-1-yl)thieno[2,3-d]pyrimidine-2,4(1H,3H)-dione] | C (provided a compound having from 25 to 49% control of barley powdery mildew) | 100 to 1000 nM | > 50 µg/mL | 10 to 100 nM | 2.1 to 4 µg/mL (≈ 3.59 to 6.83 µM) | > 50 µg/mL | 2.1 to 4 µg/mL (≈ 3.59 to 6.83 µM) | > 50 µg/mL | > 50 µg/mL | > 50 µg/mL | > 50 µg/mL | 50 to 69% | > 50 µg/mL | > 50 µg/mL | 2.1 to 4 µg/mL (≈ 3.59 to 6.83 µM)
